Reference: PubChem BioAssay (NCI)
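How tested: cells in 96-well plates exposed to compound for 48 hours at five concentrations. GI50 = concentration required for 50% inhibition of growth. Definition used: TGI = concentration required for complete inhibition of growth.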

Assays:
Assay in all cases: DTP human tumour cell line panel, 48 h
[1] = tested on: MCF7 breast
[2] = tested on: CAKI-1 renal
[3] = tested on: SF-539 CNS
[4] = tested on: MOLT-4 leukemia
[5] = tested on: SF-268 CNS
[6] = tested on: LOX IMVI melanoma
[7] = tested on: HS 578T breast
[8] = tested on: KM12 colon
[9] = tested on: SK-OV-3 ovarian
[10] = tested on: SNB-19 CNS
[11] = tested on: COLO 205 colon
[12] = tested on: SK-MEL-2 melanoma
[13] = tested on: MDA-MB-468 breast
[14] = tested on: RPMI-8226 leukemia
[15] = tested on: A549 NSCLC
[16] = tested on: SK-MEL-5 melanoma
[17] = tested on: UO-31 renal
[18] = tested on: SW-620 colon
[19] = tested on: OVCAR-3 ovarian
[20] = tested on: ACHN renal
[21] = tested on: NCI-H522 lung
[22] = tested on: MDA-MB-435
[23] = tested on: NCI-H460 lung
[24] = tested on: SN12C renal
[25] = tested on: 786-0 renal
[26] = tested on: HCT-116 colon
[27] = tested on: TK-10 renal
[28] = tested on: RXF 393 renal
[29] = tested on: OVCAR-4 ovarian
[30] = tested on: SR leukemia
[31] = tested on: CCRF-CEM leukemia
[32] = tested on: HOP-62 NSCLC
[33] = tested on: UACC-257 melanoma
[34] = tested on: A498 renal
[35] = tested on: U251 CNS
[36] = tested on: HL-60(TB) leukemia
[37] = tested on: MDA-MB-231 breast
[38] = tested on: MALME-3M melanoma
[39] = tested on: HT29 colon
[40] = tested on: SNB-75 CNS
[41] = tested on: NCI-H226 lung
[42] = tested on: IGROV1 ovarian
[43] = tested on: DU-145 prostate
[44] = tested on: K-562 leukemia
[45] = tested on: SF-295 CNS
[46] = tested on: OVCAR-5 ovarian
[47] = tested on: OVCAR-8 ovarian
[48] = tested on: UACC-62 melanoma
[49] = tested on: EKVX NSCLC
[50] = tested on: SK-MEL-28 melanoma
[51] = tested on: NCI/ADR-RES ovarian
[52] = tested on: HCT-15 colon
[53] = tested on: T-47D breast
[54] = tested on: HCC-2998 colon
[55] = tested on: M14 melanoma
[56] = tested on: PC-3 prostate
[57] = tested on: BT-549 breast
[58] = tested on: NCI-H23 lung
[59] = tested on: HOP-92 NSCLC

Compound: O=C(c1ccccc1)c1ccc2nc(-c3ccccc3Br)[nH]c2c1
- GI50 [1]: 2.15 µM
- TGI [1]: 7.67 µM
- GI50 [2]: 3.24 µM
- TGI [2]: 11.3 µM
- GI50 [3]: 1.77 µM
- TGI [3]: 3.33 µM
- GI50 [4]: 2.21 µM
- TGI [4]: 11.5 µM
- GI50 [5]: 3.1 µM
- TGI [5]: 12.3 µM
- GI50 [6]: 2.45 µM
- TGI [6]: 10.4 µM
- GI50 [7]: 3.79 µM
- TGI [7]: 54 µM
- GI50 [8]: 4.64 µM
- TGI [8]: 18.5 µM
- GI50 [9]: 4.1 µM
- TGI [9]: 12.6 µM
- GI50 [10]: 4.41 µM
- TGI [10]: 16.8 µM
- GI50 [11]: 2.04 µM
- TGI [11]: 3.94 µM
- GI50 [12]: 2.01 µM
- TGI [12]: 4.92 µM
- GI50 [13]: 1.73 µM
- TGI [13]: 3.9 µM
- GI50 [14]: 2.65 µM
- TGI [14]: 11.8 µM
- GI50 [15]: 10.2 µM
- TGI [15]: 28.2 µM
- GI50 [16]: 1.85 µM
- TGI [16]: 3.79 µM
- GI50 [17]: 4.95 µM
- TGI [17]: 17.4 µM
- GI50 [18]: 3.33 µM
- TGI [18]: 13.2 µM
- GI50 [19]: 2.94 µM
- TGI [19]: 10.4 µM
- GI50 [20]: 2.27 µM
- TGI [20]: 5.67 µM
- GI50 [21]: 1.53 µM
- TGI [21]: 3.07 µM
- GI50 [22]: 3.54 µM
- TGI [22]: 13.2 µM
- GI50 [23]: 4.22 µM
- TGI [23]: 19.8 µM
- GI50 [24]: 2.4 µM
- TGI [24]: 6.5 µM
- GI50 [25]: 2.37 µM
- TGI [25]: 4.77 µM
- GI50 [26]: 2.31 µM
- TGI [26]: 8.15 µM
- GI50 [27]: 8.18 µM
- TGI [27]: 21.3 µM
- GI50 [28]: 1.61 µM
- TGI [28]: 3.82 µM
- GI50 [29]: 3.72 µM
- TGI [29]: 13.7 µM
- GI50 [30]: 2.51 µM
- TGI [30]: 12.7 µM
- GI50 [31]: 2.24 µM
- TGI [31]: 15.9 µM
- GI50 [32]: 3.23 µM
- TGI [32]: 8.5 µM
- GI50 [33]: 2.59 µM
- TGI [33]: 12.7 µM
- GI50 [34]: 17.3 µM
- TGI [34]: 33 µM
- GI50 [35]: 2 µM
- TGI [35]: 4.59 µM
- GI50 [36]: 2.04 µM
- TGI [36]: 6.05 µM
- GI50 [37]: 4.84 µM
- TGI [37]: 19.5 µM
- GI50 [38]: 2.11 µM
- TGI [38]: 6.35 µM
- GI50 [39]: 2.27 µM
- TGI [39]: 4.63 µM
- GI50 [40]: 3.23 µM
- TGI [40]: 13.4 µM
- GI50 [41]: 2.66 µM
- TGI [41]: 12.2 µM
- GI50 [42]: 3.51 µM
- TGI [42]: 13.9 µM
- GI50 [43]: 4.33 µM
- TGI [43]: 15.4 µM
- GI50 [44]: 2.77 µM
- TGI [44]: > 100 µM
- GI50 [45]: 5.54 µM
- TGI [45]: 18.2 µM
- GI50 [46]: 2.48 µM
- TGI [46]: 5.7 µM
- GI50 [47]: 3.81 µM
- TGI [47]: 35.4 µM
- GI50 [48]: 3.57 µM
- TGI [48]: 16.4 µM
- GI50 [49]: 2.11 µM
- TGI [49]: 4.92 µM
- GI50 [50]: 3.69 µM
- TGI [50]: 14.7 µM
- GI50 [51]: 2.44 µM
- TGI [51]: 6.66 µM
- GI50 [52]: 1.74 µM
- TGI [52]: 3.78 µM
- GI50 [53]: 2.89 µM
- TGI [53]: 11.3 µM
- GI50 [54]: 8.69 µM
- TGI [54]: 21.7 µM
- GI50 [55]: 1.77 µM
- TGI [55]: 4.38 µM
- GI50 [56]: 2.48 µM
- TGI [56]: 10.8 µM
- GI50 [57]: 1.53 µM
- TGI [57]: 3.15 µM
- GI50 [58]: 2.08 µM
- TGI [58]: 6.5 µM
- GI50 [59]: 2.08 µM
- TGI [59]: 6.48 µM
